Assay [1] addresses T1, 5-HT2C receptor (Homo sapiens, UniProt P28335).
T1 sequence (P28335 33-458): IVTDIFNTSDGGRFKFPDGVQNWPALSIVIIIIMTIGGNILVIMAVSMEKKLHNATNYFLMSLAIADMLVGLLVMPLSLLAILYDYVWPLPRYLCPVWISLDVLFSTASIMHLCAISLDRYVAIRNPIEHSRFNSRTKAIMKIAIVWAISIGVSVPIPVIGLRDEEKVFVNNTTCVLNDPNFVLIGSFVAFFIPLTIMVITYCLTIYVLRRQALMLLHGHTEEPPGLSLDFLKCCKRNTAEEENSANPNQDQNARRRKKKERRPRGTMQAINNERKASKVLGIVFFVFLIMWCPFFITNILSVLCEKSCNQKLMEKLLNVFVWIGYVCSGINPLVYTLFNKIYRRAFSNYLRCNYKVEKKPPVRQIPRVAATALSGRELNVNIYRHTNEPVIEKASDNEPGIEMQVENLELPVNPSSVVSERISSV
As to the kind of experiment: 5-HT2C receptor cell-based functional assay (agonist mode, fluorescence-based). To be noted: for %activation: Table 2, serotonin as reference compound.
Protocol: The synthesized compounds were tested in agonist mode with the 5-HT2C receptor assay using recombinant human HEK-293 cells serviced by either Eurofins Cerep or DGMIF (Daegu-Gyeongbuk Medical Innovation Foundation). All the experiments were duplicated.

Assay [2] concerns the target T1, 5-HT2C receptor. Put plainly: 5-HT receptor radioligand binding affinity assay, 2C. Details: expressed in transfected cells. Conditions: Table 2. The protocol: Eleven dilutions (5 x assay concentration) of the test and reference compounds (Table S1) were prepared in standard binding buffer (50 mM tris(hydroxymethyl)-aminomethane–HCl (Tris-HCl), 10 mM MgCl2, 1 mM ethylenediaminetetraacetate (EDTA), pH 7.4) by serial dilution: 0.05 nM, 0.5 nM, 1.5 nM, 5 nM, 15 nM, 50 nM, 150 nM, 500 nM, 1.5 μM, 5 μM, and 50 μM. The radioligand (Table S1) was diluted to five times the assay concentration in standard binding buffer. Aliquots (50 μL) of the radioligand were dispensed into the wells of a 96-well plate containing 100 μL of standard binding buffer. Triplicate aliquots (50 μL) of the test and reference compound dilutions were then added. Finally, crude membrane fractions (50 μL) of cells (HEK293 or CHO) expressing human recombinant receptors were dispensed into each well. A total 250 μL of the reaction mixtures was incubated at room temperature and shielded from light for 1.5 h, then harvested by rapid filtration onto Whatman GF/B glass fiber filters presoaked with 0.3% polyethyleneimine, by using a 96-well Brandel harvester.
Four rapid washes were performed with chilled standard binding buffer (500 μL) to decrease nonspecific binding. Filters were placed in 6 mL scintillation tubes and allowed to dry overnight. The next day, 4 ml of EcoScint scintillation cocktail (National Diagnostics) was added to each tube. The tubes were capped, labeled, and counted by liquid scintillation counting. The filter mats were dried, and the scintillant was melted onto the filters, then the radioactivity retained on the filters was counted in a Microbeta scintillation counter. The IC50 values were obtained by using the Prism 4.0 program (GraphPad Software, San Diego, CA) and converted into Ki values. Each compound was tested in triplicate at least.
3. Radioligands and reference compounds for binding assay
Table S1. A list of 5-HT receptor radioligands and reference compounds for binding assay.
Receptor subtype Radioligand Reference compound
1A [3H]8-OH-DPAT Methysergide
2A [3H]Ketanserin Chlorpromazine
2C [3H]Mesulergine Chlorpromazine

[3] abbreviates: HEK293, read-out: %activation (10 μM).
[4] abbreviates: HEK293, read-out: %activation (10 μM), 10 μM, recombinant human HEK-293 cells, Table 1.

Counter-ions that a name gives are not always drawn. Like-named read-outs stand apart in the source and are kept apart here.

For the molecule `Fc1ccc(CCOc2cnc(N3CCCNCC3)nc2)cc1` [9r], at 5-HT2C receptor [1] (setting [3]), the activation at 10 µM is -1%.

`C[C@H]1CNCCc2ccc(Cl)cc21` [Lorcaserin (1), Lorcaserin, reference compound]: at 5-HT2C receptor [1] (1 μM, Table 1 footnote a), the “%activation value at 1 μM” value is recorded as 94^a %.

For the molecule `Fc1ccc(CCOc2cnc(N3CCNCC3)nc2)cc1` [9f], the activation at 10 µM on 5-HT2C receptor [1] (setting [4]) was 4%.

With `C[C@@H](Oc1nc(N[C@H]2CCNC2)ncc1F)c1cccc(F)c1` [10e, 5-fluoro-4-((R)-1-(3-fluorophenyl)ethoxy)-N-((S)-pyrrolidin-3-yl)pyrimidin-2-amine], the Ki (usually a dissociation constant, usually derived from enzyme kinetics or from competition with a known ligand) at 5-HT2C receptor [2] worked out at 1260 nM. Also, on 5-HT2C receptor [1], the “%activation” value is listed as 7.7%.

For the molecule `C[C@@H]1CNCCN1c1ncc(Oc2cccc(F)c2)cn1` [9g], at 5-HT2C receptor [1] (setting [3]), the activation at 10 µM amounted to 35%.

With `Fc1cccc(CCOc2cnc(N3CCNCC3)nc2)c1` [9c], at 5-HT2C receptor [1] (setting [4]), the activation at 10 µM is 15%.

In the case of `C[C@@H]1CNCCN1c1ncc(OCCc2ccc(F)cc2)cn1` [9l], at 5-HT2C receptor [1] (setting [3]), the activation at 10 µM was determined as 32%.

For the molecule `Fc1cccc(COc2cnc(N3CCCNCC3)nc2)c1` [9n, 4-(5-((3-fluorobenzyl)oxy)pyrimidin-2-yl)-1,4-diazepan-1-ium∙hydrochloride], the activation at 10 µM at 5-HT2C receptor [1] (setting [3]) was -1%.

For the molecule `Fc1ccc(Oc2cnc(N3CCNCC3)nc2)cc1` [9d], the activation at 10 µM on 5-HT2C receptor [1] (setting [4]) is 5%.

On to `Fc1ccc(Oc2cnc(N3CCCNCC3)nc2)cc1` [9p], for which the activation at 10 µM at 5-HT2C receptor [1] (setting [3]) came to 14%.

Take `C[C@@H](Oc1nc(N[C@H]2CCNC2)ncc1F)c1ccc(F)cc1` [10j, 5-Fluoro-4-((R)-1-(4-fluorophenyl)ethoxy)-N-((S)-pyrrolidin-3-yl)pyrimidin-2-amine]: on 5-HT2C receptor [1], the “%activation” value is 0.1%.

Consider `C[C@@H]1CNCCN1c1ncc(OCCc2cccc(F)c2)cn1` [9i], for which the activation at 10 µM on 5-HT2C receptor [1] (setting [3]) amounted to 40%.

Regarding `C[C@@H](Oc1nc(N[C@@H]2CCNC2)ncc1F)c1cccc(F)c1` [10d, 5-fluoro-4-((R)-1-(3-fluorophenyl)ethoxy)-N-((R)-pyrrolidin-3-yl)pyrimidin-2-amine], the affinity at 5-HT2C receptor [2] corresponds to a Ki of 119 nM. The “%activation” value on 5-HT2C receptor [1] was determined as 16.4%.

On to `Fc1cccc(CCOc2cnc(N3CCCNCC3)nc2)c1` [9o], for which, at 5-HT2C receptor [1] (setting [3]), the activation at 10 µM was determined as 3%.

As to `C[C@@H]1CNCCN1c1ncc(Oc2ccc(F)cc2)cn1` [9j], at 5-HT2C receptor [1] (setting [3]), the activation at 10 µM was found to be 26%.

For the molecule `Fc1cccc(COc2cnc(N3CCNCC3)nc2)c1` [9b, 4-(5-((3-fluorobenzyl)oxy)pyrimidin-2-yl)piperazin-1-ium∙hydrochloride], the activation at 10 µM at 5-HT2C receptor [1] (setting [4]) is > 50%.

`Fc1cccc(Oc2cnc(N3CCCNCC3)nc2)c1` [9m]: at 5-HT2C receptor [1] (setting [3]), the activation at 10 µM was found to be 16%.

Turning to `Fc1ccc(COc2cnc(N3CCNCC3)nc2)cc1` [9e, 4-(5-((4-fluorobenzyl)oxy)pyrimidin-2-yl)piperazin-1-ium∙hydrochloride], the activation at 10 µM on 5-HT2C receptor [1] (setting [4]) was 18%.

As to `C[C@@H](Oc1nc(N2C[C@H]3CNC[C@H]3C2)ncc1F)c1cccc(F)c1` [10c, (3aR,6aS)-2-(5-fluoro-4-((R)-1-(3-fluorophenyl)ethoxy)pyrimidin-2-yl)octahydropyrrolo[3,4-c]pyrrole], the Ki on 5-HT2C receptor [2] stood at 295 nM. The “%activation” value at 5-HT2C receptor [1] is 29.5%.

With `C[C@@H](Oc1nc(N[C@@H]2CCNC2)ncc1F)c1ccc(F)cc1` [10i, 5-fluoro-4-((R)-1-(4-fluorophenyl)ethoxy)-N-((R)-pyrrolidin-3-yl)pyrimidin-2-amine], the Ki at 5-HT2C receptor [2] was 120 nM.

Take `C[C@@H]1CNCCN1c1ncc(OCc2cccc(F)c2)cn1` [9h, (R)-4-(5-((3-fluorobenzyl)oxy)pyrimidin-2-yl)-3-methylpiperazine-1-ium∙hydrochloride]: the activation at 10 µM at 5-HT2C receptor [1] (setting [3]) was 48%.

Consider `C[C@@H]1CNCCN1c1ncc(OCc2ccc(F)cc2)cn1` [9k, (R)-4-(5-((4-fluorobenzyl)oxy)pyrimidin-2-yl)-3-methylpiperazin-1-ium∙hydrochloride], for which the activation at 10 µM at 5-HT2C receptor [1] (setting [3]) was 48%.

Molecule `C[C@@H](Oc1nc(N2C[C@H]3CNC[C@H]3C2)ncc1F)c1ccc(F)cc1` [10h, (3aR,6aS)-2-(5-fluoro-4-((R)-1-(4-fluorophenyl)ethoxy)pyrimidin-2-yl)octahydropyrrolo[3,4-c]pyrrole] gave a Ki at 5-HT2C receptor [2] of 466 nM. Besides, at 5-HT2C receptor [1], the “%activation” value was 10.1%.

`Fc1ccc(COc2cnc(N3CCCNCC3)nc2)cc1` [9q, 4-(5-((4-fluorobenzyl)oxy)pyrimidin-2-yl)-1,4-diazepan-1-ium∙hydrochloride]: the activation at 10 µM at 5-HT2C receptor [1] (setting [3]) came to 16%.

Consider `Fc1cccc(Oc2cnc(N3CCNCC3)nc2)c1` [9a], for which the activation at 10 µM at 5-HT2C receptor [1] (setting [4]) came out at 7%.

For the molecule `C[C@@H](Oc1nc(N2CCC3(CCNC3)C2)ncc1F)c1cccc(F)c1` (stereo partly drawn) [10b, 2-(5-fluoro-4-((R)-1-(3-fluorophenyl)ethoxy)pyrimidin-2-yl)-2,7-diazaspiro[4.4]nonane], the “%activation” value on 5-HT2C receptor [1] was 78.2%.

As for `C[C@@H](Oc1nc(N2CCC3(CCNC3)C2)ncc1F)c1ccc(F)cc1` (stereo partly drawn) [10g, 2-(5-fluoro-4-((R)-1-(4-fluorophenyl)ethoxy)pyrimidin-2-yl)-2,7-diazaspiro[4.4]nonane], the Ki at 5-HT2C receptor [2] was found to be 232 nM. That is a sub-micromolar value.

(Values after publication PMC6767204, “Synthesis and Biological Evaluation of Disubstituted Pyrimidines as Selective 5-HT2C Agonists” (Molecules, 2019).)
